The results in this text go back to ChEMBL document CHEMBL1156784, “The permeation of amphoteric drugs through artificial membranes--an in combo absorption model based on paracellular and transmembrane permeability” (J Med Chem, 2010).

The term Papp denotes the rate of passage across a membrane or cell layer, normalised by area and donor concentration. Lower therefore signals slow passage. As usually defined, the bioavailability is dose-corrected exposure relative to a reference, in per cent. A high value points to good availability. Broadly, the logP is a log measure of how a compound divides between an organic and an aqueous phase. Low values mean lower lipophilicity, high ones higher lipophilicity.

The nature of data set [1]: Permeability at pH 6.5 by PAMPA method.
Data set [2] is filed under the species Homo sapiens. The data set can be described thus: Clearance in human assessed as liver blood flow. The data set is classed as ADME, organism-based. The following applies: in vivo.
The nature of data set [3]: Oral bioavailability in human. The following applies: in vivo.
Data set [4] can be described thus: Octanol-water partition coefficient, log P of the compound.

`N[C@@H](Cc1ccc(N(CCCl)CCCl)cc1)C(=O)O` gave a Papp in data set [1] of 84 ×10⁻⁶ cm/s. In data set [2], the LBF is given as 30%.

In data set [1], `Nc1nc2c(ncn2COCCO)c(=O)[nH]1` [ACYCLOVIR] had a Papp of 0.8 ×10⁻⁶ cm/s.

Consider `CC1(C)S[C@@H]2[C@H](/N=C/N3CCCCCC3)C(=O)N2[C@H]1C(=O)O` [AMDINOCILLIN], for which, in data set [3], the bioavailability was 10%. Besides, the Papp in data set [1] stood at 0.9 ×10⁻⁶ cm/s.

For the compound `CCOC(=O)[C@H](CCc1ccccc1)N[C@H]1CCc2ccccc2N(CC(=O)O)C1=O` [BENAZEPRIL], the bioavailability in data set [3] is 37%. This compound yielded a Papp in data set [1] of 17 ×10⁻⁶ cm/s.

In data set [3], `CC(C)(O/N=C(\C(=O)N[C@@H]1C(=O)N2C(C(=O)[O-])=C(C[n+]3ccccc3)CS[C@H]12)c1csc(N)n1)C(=O)O` [CEFTAZIDIME] displayed a bioavailability of 0%. The same compound gave a Papp in data set [1] of 0.2 ×10⁻⁶ cm/s.

Consider `COCc1c(C(C)C)nc(C(C)C)c(/C=C/[C@@H](O)C[C@@H](O)CC(=O)O)c1-c1ccc(F)cc1` [CERIVASTATIN], for which the bioavailability in data set [3] worked out at 60%. In addition, the LBF in data set [2] was determined as 10%.

In data set [3], `CN(C)[C@@H]1C(O)=C(C(N)=O)C(=O)[C@@]2(O)C(O)=C3C(=O)c4c(O)ccc(Cl)c4[C@@](C)(O)[C@H]3C[C@@H]12` [CHLORTETRACYCLINE] displayed a bioavailability of 60%. In addition, the Papp in data set [1] was determined as 3.7 ×10⁻⁶ cm/s.

In data set [3], `COc1cccc2c1C(=O)c1c(O)c3c(c(O)c1C2=O)C[C@@](O)(C(C)=O)C[C@@H]3O[C@H]1C[C@H](N)[C@H](O)[C@H](C)O1` [DAUNORUBICIN] returned a bioavailability of 0%. The same compound came in with a Papp in data set [1] of 0.3 ×10⁻⁶ cm/s.

On to `CN(C)[C@@H]1C(O)=C(C(N)=O)C(=O)[C@@]2(O)C(O)=C3C(=O)c4c(O)ccc(Cl)c4[C@@H](O)[C@H]3C[C@@H]12` [DEMECLOCYCLINE], for which the bioavailability in data set [3] worked out at 66%. For the same compound, in data set [1], the Papp turned out to be 3.8 ×10⁻⁶ cm/s.

For `C[C@H]1c2cccc(O)c2C(=O)C2=C(O)[C@]3(O)C(=O)C(C(N)=O)=C(O)[C@@H](N(C)C)[C@@H]3[C@@H](O)[C@@H]21.O` [DOXYCYCLINE], in data set [1], the Papp worked out at 20 ×10⁻⁶ cm/s.

Compound `CCn1cc(C(=O)O)c(=O)c2cc(F)c(N3CCNCC3)nc21` [ENOXACIN] returned a bioavailability in data set [3] of 89%. Further, the Papp in data set [1] worked out at 7.7 ×10⁻⁶ cm/s.

Turning to `NC(N)=Nc1nc(CSCCC(N)=NS(N)(=O)=O)cs1` [FAMOTIDINE], the bioavailability in data set [3] amounted to 42%. Besides, in data set [1], the Papp is 0.6 ×10⁻⁶ cm/s. For the same compound, in data set [2], the LBF was determined as 16%.

As to `Nc1nc(O)c2ncn(COC(CO)CO)c2n1` [GANCICLOVIR], in data set [3], the bioavailability was 7.3%.

In the case of `COc1c(N2CCNC(C)C2)c(F)cc2c(=O)c(C(=O)O)cn(C3CC3)c12` (stereo unspecified) [GATIFLOXACIN], in data set [1], the Papp was determined as 20 ×10⁻⁶ cm/s.

For the compound `C[N+](C)(C)C[C@H](O)CC(=O)[O-]` [LEVOCARNITINE], the bioavailability in data set [3] came to 10%. Also, the Papp in data set [1] was determined as 1.3 ×10⁻⁶ cm/s.

Take `NCCCC[C@H](N[C@@H](CCc1ccccc1)C(=O)O)C(=O)N1CCC[C@H]1C(=O)O` [LISINOPRIL ANHYDROUS]: the bioavailability in data set [3] was determined as 25%.

Consider `CCn1cc(C(=O)O)c(=O)c2cc(F)c(N3CCNC(C)C3)c(F)c21` (stereo unspecified) [LOMEFLOXACIN], for which the bioavailability in data set [3] is 97%. Also, the permeability in data set [1] came out at 15 ×10⁻⁶ cm/s.

In turn, `Cc1cnc(NC(=O)C2=C(O)c3ccccc3S(=O)(=O)N2C)s1` [MELOXICAM] yielded a bioavailability in data set [3] of 89%.

With `Nc1ccc(O)c(C(=O)O)c1` [MESALAMINE], the bioavailability in data set [3] amounted to 28%. This compound also registered a Papp in data set [1] of 0.9 ×10⁻⁶ cm/s.

Compound `CN(C)c1ccc(O)c2c1C[C@H]1C[C@H]3[C@H](N(C)C)C(O)=C(C(N)=O)C(=O)[C@@]3(O)C(O)=C1C2=O` [MINOCYCLINE] had a bioavailability in data set [3] of 100%. In addition, the Papp in data set [1] came to 50 ×10⁻⁶ cm/s.

`CC1COc2c(N3CCN(C)CC3)c(F)cc3c(=O)c(C(=O)O)cn1c23` (stereo unspecified) [OFLOXACIN] came in with a bioavailability in data set [3] of 90%.

With `CCn1cc(C(=O)O)c(=O)c2cc(F)c(N3CCN(C)CC3)cc21` [PEFLOXACIN], in data set [3], the bioavailability turned out to be 95%.

Regarding `CN1C(C(=O)Nc2ccccn2)=C(O)c2ccccc2S1(=O)=O` [PIROXICAM], the Papp in data set [1] came out at 20 ×10⁻⁶ cm/s.

In data set [3], `C[C@@H]1CN(c2c(F)c(N)c3c(=O)c(C(=O)O)cn(C4CC4)c3c2F)C[C@H](C)N1` [SPARFLOXACIN] displayed a bioavailability of 92%. In addition, the Papp in data set [1] was found to be 42 ×10⁻⁶ cm/s.

Consider `Nc1ccc(S(=O)(=O)Nc2ncccn2)cc1` [SULFADIAZINE], for which the bioavailability in data set [3] came to 100%. In addition, in data set [1], the apparent permeability coefficient (Papp) came out at 1.2 ×10⁻⁶ cm/s. Further, in data set [4], the logP is -0.08.

In data set [3], `CC(C)(C)NCC(O)c1cc(O)cc(O)c1` (stereo unspecified) [TERBUTALINE] showed a bioavailability of 14%. Besides, the Papp in data set [1] was 1.4 ×10⁻⁶ cm/s.

The compound `CN(C)[C@@H]1C(O)=C(C(N)=O)C(=O)[C@@]2(O)C(O)=C3C(=O)c4c(O)cccc4[C@@](C)(O)[C@H]3C[C@@H]12` [TETRACYCLINE] displayed a bioavailability in data set [3] of 78%. The compound further had a Papp in data set [1] of 3.8 ×10⁻⁶ cm/s.

Regarding `Cc1cccc(Nc2ccncc2S(=O)(=O)NC(=O)NC(C)C)c1` [TORSEMIDE], the bioavailability in data set [3] came out at 80%. The compound also displayed a Papp in data set [1] of 22 ×10⁻⁶ cm/s.

`N[C@@H]1[C@H]2CN(c3nc4c(cc3F)c(=O)c(C(=O)O)cn4-c3ccc(F)cc3F)C[C@@H]12` [TROVAFLOXACIN] displayed a bioavailability in data set [3] of 88%. The compound also showed a Papp in data set [1] of 57 ×10⁻⁶ cm/s.
